PMC9367459 (Animals : an Open Access Journal from MDPI, 2022)
Where “and” joins values, the source holds several entries; their conditions need not be identical. Identical values can stand only once. Like-named read-outs stand apart in the source and are kept apart here.

Tests used:
[1] = system: IFN-antagonist activity of FMDV 3C^pro; type: cell-based, human
[2] = system: FMDV serotype A; assay: organism not typed; conditions: BHK-21
[3] = molecular target: FMDV 3C^pro (Foot-and-mouth disease virus, UniProt P03306); assay: cell-based; conditions: for IC90: HEK-293T
[4] = in vitro; conditions: hamster
[5] = in vitro; conditions: human
[6] = system: FMDV; type: cell-based, FMDV serotype A, A/TAI/NP05/2016 (NP05)
[7] = system: BHK-21 cells; conditions: hamster
[8] = system: FMDV; type: cell-based, FMDV serotype A, A/TAI/NP05/2016 (NP05); remark: listed apart in the source
[9] = system: FMDV serotype A; type: cell-based, A/TAI/NP05/2016 (NP05)
[10] = system: chikungunya virus; conditions: cited from earlier work
[11] = system: FMDV serotype A
[12] = system: hepatitis B virus; conditions: cited from earlier work

Sequence of FMDV 3C^pro (P03306 1650-1862 limits assumed): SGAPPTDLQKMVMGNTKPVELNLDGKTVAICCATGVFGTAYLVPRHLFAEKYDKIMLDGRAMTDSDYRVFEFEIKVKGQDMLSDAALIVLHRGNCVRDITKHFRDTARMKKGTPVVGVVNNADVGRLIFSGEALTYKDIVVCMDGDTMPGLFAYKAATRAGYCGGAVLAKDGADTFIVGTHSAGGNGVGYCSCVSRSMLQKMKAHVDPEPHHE

Structure (SMILES)	Effect on IFN-antagonist activity of 3C^pro [1]	ISG15 mRNA expression [1]	ISG56 mRNA expression [1]	Mx-1 mRNA expression [1]	OAS-1 mRNA expression [1]	PKR mRNA expression [1]	EC50 [2] [µM]	IC50 [3] [µM]	IC90 [3] [µM]	CC50 [4] [µM]	CC50 [5] [µM]	Protection activity [6]	CC10 [7] [µM]	CC50 [7] [µM]	Extracellular virucidal activity [8]	Viral nucleic acids (viral copy numbers) [9]	EC50 [10]	SI (CC50/EC50) [11]	EC50 [12] [µM]	EC50 [11] [µM]
C=C1CC[C@@H]2[C@](C)(CO)[C@H](O)CC[C@@]2(C)[C@@H]1CCC1=CCOC1=O [DAG, deoxyandrographolide]	significantly derepressed the IFN-antagonist activity of the 3C^pro	62.36 fold-changes and 64.43 fold-changes	84.77 fold-changes and 77.60 fold-changes	14.37 fold-changes and 13.04 fold-changes	250.25 fold-changes and 244.76 fold-changes	11.65 fold-changes and 12.84 fold-changes	36.47 ± 0.07	25.6 ± 1.41	123 ± 2.09	211.5 ± 0.03	651.4 ± 0.32	neither extracellular virucidal nor protection activities	81.05 ± 0.01	332.3 ± 0.09	neither extracellular virucidal nor protection activities	significantly decreased				
C=C1CC[C@@H]2[C@](C)(CO)[C@H](O)CC[C@@]2(C)[C@@H]1C/C=C1/C(=O)OC[C@H]1O [AGL, andrographolide]	significantly derepressed the IFN-antagonist activity of the 3C^pro	52.93 fold-changes and 59.99 fold-changes	72.73 fold-changes and 107.66 fold-changes	5.33 fold-changes and 6.98 fold-changes		6.22 fold-changes and 6.12 fold-changes	52.18 ± 0.01	67.4 ± 0.81	267.2 ± 2.43	116.8 ± 0.03	453 ± 0.04	neither extracellular virucidal nor protection activities	94.55 ± 0.02		neither extracellular virucidal nor protection activities	significantly decreased	77.4 µM and 88 µM	2.23	54.1	
C=C1CC[C@@H]2[C@](C)(CO[C@@H]3O[C@H](CO)[C@@H](O)[C@H](O)[C@H]3O)CCC[C@@]2(C)[C@@H]1CCC1=CCOC1=O [NEO, neoandrographolide]	could not reduce the IFN suppression by 3C^pro	37.58 fold-changes and 32.91 fold-changes	62.33 fold-changes and 55.39 fold-changes	2.19 fold-changes and 4.00 fold-changes	106.88 fold-changes and 163.69 fold-changes	3.65 fold-changes and 1.99 fold-changes	> 500	111 ± 2.04	635.8 ± 2.9	332.3 ± 0.09	914.2 ± 0.04	neither extracellular virucidal nor protection activities	149.94 ± 0.21	211.5 ± 0.03	neither extracellular virucidal nor protection activities	reduced viral replication to a lesser extent		0.38		542.4 ± 0.2
